# From PMC11391541, “Target-Directed Dynamic Combinatorial Chemistry Affords Binders of Mycobacterium tuberculosis IspE” (ACS Omega, 2024)
# Columns and labels:
# in vitro = details: human, HepG2 CC50, HepG2, 48 h, MTT
# [1] = solubility in M. tuberculosis 7H9 growth medium; assay type: physicochemical; details: Mtb 7H9 growth medium
# Protocol: Prior to biological evaluation of the tdDCC hits, we tested their solubility in a standard buffer as well as in M. tuberculosis 7H9 growth medium. […] Regrettably, with 3.3 μM the least soluble compound is E1, making our most amplified and promising compound unsuitable for biological evaluation. We assessed the solubility in Mtb growth medium given that it is a complex, nutrient-rich environment with a distinct solubility profile. However, the trend continued, only seven hits are soluble at 8 μM or above, the remaining five compounds, including E1, were not eligible for antitubercular activity testing (Table 1).
# Determination of in vitro anti-tubercular activity and solubility in 7H9 medium Anti-tubercular tests were performed as previously described .1 In brief, 7H9 complete medium (BD Difco; Becton Dickinson, Maryland,USA) supplemented with 10% OADC (BD), 0.2% glycerol, and 0.05% Tween80 as previously described ,3 was used to culture Mycobacterium tuberculosis (Mtb) strain H37Rv (ATCC 25618) carrying a mCherry -expressing plasmid (pCherry10 ).4 Cultures were harvested at mid-log phase and frozen in aliquots at – 80 °C. Prior to testing aliquots were thawed followed by centrifugation and the pellet was resuspended in 7H9 medium with 10% OADC (without glycerol and Tween80). This was further thoroughly resuspended by passing it through a syringe with a 26 -gauge needle to avoid clumping of the bacteria. 2×10^5 CFU (colony forming units) were then cultured in a total volume of 100 μl culture medium (triplicates) to test the non-precipitating compounds for the anti-tubercular activity at the concentrations indicated. For these assays, 96-well flat clear bottom black polystyrene microplates (Corning® CellBIND®, Merck, New York, USA) wer e used. Each plate had Rifampicin (at 1 μg/ml and 0.1 μg/ml) (National Reference Center, Borstel) as a reference compound. Plates were sealed with an air -permeable membrane (Porvair Sciences, Wrexham, UK) in a 37 °C incubator with mild agitation (TiMix5, Edmund Bühler, Germany). The activity of compounds was determined after 7 days by measuring the bacterial growth as relative light units (RLU) from the fluorescence intensity obtained at an excitation wavelength of 575 nm and an emission wavelength of 635 n m in a microplate reader (Synergy 2, BioTek Instruments, Vermont, USA). Two independent experiments (each in triplicates) were performed, and all values were normalized to untreated control sample (100%) in each experiment.
# To obtain information regarding the toxicity of our compounds, their impact on the viability of human cells was investigated. HepG2 cells (2x10^4 cells per well) were seeded in 96 -well, flat-bottomed culture plates in 100 µL culture medium (DMEM containing 10% fetal calve serum, 1% penicillin -streptomycin). Twenty-four hours after seeding the cells, medium was removed and replaced by medium containing test compounds in a final DMSO concentration of 1%. Compounds were tested in duplicates at a single concentration or, for CC50 determination, at 8 concentrations that were prepared via 2 -fold serial dilutions in 1% DMSO/medium. Epirubicin and doxorubicin were used as positive controls in serial dilutions starting from 10 µM, and rifampicin was used as a negative control (at 100 µM). The living cell mass was determined 48 h after treatment with compounds by adding 0.1 volumes of 3 -(4,5-dimethylthiazol-2-yl)-2,5-diphenyltetrazolium bromide (MTT) solution (5 mg/mL sterile PBS) (Sigma, St. Louis, MO) to the wells. After incubating the cells for 30 min at 37 °C (atmosphere containing 5% CO2), medium was removed and MTT crystals were dissolved in 75 µL of a solution containing 10% SDS and 0.5% acetic acid in DMSO. The optical density (OD) of the samples was determined photometrically at 570 nm in a PHERAstar Omega plate reader (BMG labtech, Ortenberg, Germany). To obtain percent viability for each sample, their ODs were related to those of DMSO controls. […]
# EcK12 = experiment: E. coli growth inhibition, wild-type strain K12; assay type: cell-based, Escherichia coli; details: Escherichia coli, 18 h, LB medium, read-out: EcK12 %inh. At 50 μM
# MtbIspE [2] = target: T1, MtbIspE (Mycobacterium tuberculosis, UniProt P9WKG7); experiment: MtbIspE binding study via MicroScale Thermophoresis (MST); details: MST, 20 μM ligand, 200 nM MtbIspE, triplicate; qualitative
# MtbIspE [3] = target: T1, MtbIspE; experiment: target-directed dynamic combinatorial chemistry (tdDCC), amplification of acylhydrazones in protein-templated vs blank DCL (HPLC-MS/MS, UV 310 nm); assay type: binding; details: DCL-3, 24 h, 40 mol % MtbIspE; I1 and K1 integrated as one cluster
# Protocol: In this study, we used MtbIspE as target protein and the reversible reaction of hydrazides and aldehydes to form dynamic combinatorial libraries (DCLs) of acylhydrazones. […] To accelerate the reaction at neutral pH, aniline was used as nucleophilic catalyst activating the aldehydes.[2],[4],[19] We analyzed the protein’s effect on the DCLs by comparing HPLC-MS/MS data of blank vs protein-templated (PT) experiments. The experiments spanned 3 days, with periodic sampling (every 2 h, followed by two samples per day after 8 h). The addition of NaOH to raise the pH and halt the reactions ensured the sample composition was preserved for analysis.[19] Templated experiments were conducted in duplicate, and the protein was denatured and removed prior to HPLC-MS/MS analysis.
# The tdDCC hits and thus potential MtbIspE binders are amplified in the PT experiment compared to the blank experiment. The first step in the analysis of DCLs is the determination of the equilibrium since the amplification factors need to be calculated when the concentration of products is stable. To determine the evolution of the possible products, it is important to measure the characteristic UV absorbance of the acylhydrazones linker (310 nm) during the HPLC-MS/MS run. The resulting UV peaks are assigned to each product using the MS data (Figures S3–S6). The sum of all peak areas is normalized to 100% in order to obtain the respective relative peak area (RPA) for each product. The RPA values represent relative concentrations, determined at each time point of the blank experiment until the values stabilize. […] However, the rest of the compounds are out of range, making a visual inspection difficult. […] The other three libraries behaved in the same way, reaching equilibrium within 24 h and also maintained stable concentrations beyond (Figures S7–S9). To determine the tdDCC hits, we compared the RPAs of the PT experiments to the blanks at 24 h and set a threshold of at least 50% increase in compound formation. In total, 11 acylhydrazones passed our criteria, with amplification factors ranging from […] to 15.5, qualifying them for resynthesis and further evaluation (Figure 3). During the analysis of chromatograms, challenges arose concerning product identification. Some compound peaks were not neatly separated, forcing us to consider them in clusters, others presented two peaks, likely due to isomers, and were considered separately in our evaluation. Lastly, some compounds were detected by MS, but their respective UV signal interfered with the injection peak or was too low for integration (<1%), both in the blank and PT experiments. Consequently, we excluded these compounds from the analysis (Figure S3–S6).
# To a well of a 24-well plate, containing Tris buffer (pH 7.0) were added hydrazides (300 μM each, in DMSO), aldehydes (100 μM each, in DMSO), aniline (20 mM, in DMSO), the protein MtbIspE (25 or 40 μM in Tris buffer at pH 7.0), and an additional amount of DMSO to reach a final concentration of 5% in the DCL with 0.5 mL of end-volume. The DCL was allowed to mix on a plate shaker at room temperature and was frequently monitored via LCMS-MS. For analysis, 30 μL of the corresponding library was mixed with 42 μL acetonitrile and 3 μL of NaOH (1 M), the mixture was centrifuged, and the supernatant was used for the analysis. PT experiments were run in duplicates and the protein was omitted for the blank experiments.
# High-resolution mass (HRMS) of final products was determined by HPLC-MS/MS using a Thermo Scientific Q Exactive Focus Orbitrap LC -MS/MS system. All compounds were analyzed for purity by LCMS on Acquity UPLC-SQD system from Waters with a gradient elution of Water (Formic acid 0.1%)/Acetonitrile on an HSS - T3 column (2.1 x 50 mm, Waters), 1.8 µm, at 30°C, PDA detection between 240 -320 nm, and MS detection by simultaneous ES+/ES- ionization in a mass range of 150 -800. The flow is set to 0.9 ml/min, and the […]
# gradient time is 1.5 min. […]
# HepG2 cells = details: read-out: HepG2 CC50; HepG2, 48 h, MTT
# physchem = details: aqueous with cosolvent or surfactant or cyclodextrin, kinetic from dmso stock, solubility 5% DMSO in PBS
# MtbIspE [4] = target: T1, MtbIspE; experiment: MtbIspE binding study via thermal shift assay; details: read-out: MtbIspE ΔTm at 20 μM
# EcTolC = experiment: microbe, parasite or virus in culture; assay type: cell-based; details: Escherichia coli, 18 h, LB medium, read-out: EcTolC %inh. At 50 μM
# T1 sequence (P9WKG7 whole entry): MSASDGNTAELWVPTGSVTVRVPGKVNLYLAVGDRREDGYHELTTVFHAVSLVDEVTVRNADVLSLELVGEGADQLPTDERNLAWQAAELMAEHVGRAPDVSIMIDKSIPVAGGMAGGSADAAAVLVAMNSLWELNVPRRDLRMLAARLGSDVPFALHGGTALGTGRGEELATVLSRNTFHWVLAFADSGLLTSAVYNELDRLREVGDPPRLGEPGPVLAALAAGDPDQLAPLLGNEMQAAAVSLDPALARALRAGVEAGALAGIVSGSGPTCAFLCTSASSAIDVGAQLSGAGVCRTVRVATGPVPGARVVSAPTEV
SMILES,CC50 (in vitro),solubility in 7H9 [1],inhibition at 50 µM (EcK12),MtbIspE binding at 20 μM (MtbIspE [2]),Amplification factors (DCL-3) (MtbIspE [3]),CC50 (HepG2 cells),solubility at 5 min (physchem),ΔTm at 20 µM (MtbIspE [4]),inhibition at 50 µM (EcTolC)
"O=C(N/N=C/c1cc(Cl)ccc1O)c1cccc(Cl)c1 [K1, (E)-3-Chloro-N′-(5-chloro-2-hydroxybenzylidene)benzohydrazide]",< 10 µM,insoluble,< 10%,consistently demonstrated binding across all measurements and Yes,2.0,7 ± 3 µM,25 ± 4 µM,0.7 °C,
"CC(C)Cc1cc(C(=O)N/N=C/c2cc(Cl)ccc2O)[nH]n1 [D1, (E)-N′-(5-Chloro-2-hydroxybenzylidene)-3-isobutyl-1H-pyrazole-5-carbohydrazide]",< 10 µM,insoluble,11 ± 4%,No,,7.9 ± 0.8 µM,22 ± 9 µM,< 0.3 °C,28 ± 11%
